Data as given in the supplement of paper PMC7801607.
pIC50: −log10 of the molar value.

Each molecule was assayed on Plasmodium falciparum Dd2 asexual blood stage.

| SMILES | pIC50 |
| --- | --- |
| CNC(=O)C1O[C@@H](n2cnc3c(NCc4cccc(I)c4)nc(Cl)nc32)[C@H](O)[C@@H]1O (stereo partly specified) | < 5.30 |
| O=C1CCC(N2C(=O)c3ccccc3C2=O)C(=O)N1 (stereo unspecified) | < 5.30 |
| CC(=O)N1CCN(c2ccc(OCC3COC(Cn4ccnc4)(c4ccc(Cl)cc4Cl)O3)cc2)CC1 (stereo unspecified) | < 5.30 |
| CN(Cc1ccc(C(C)(C)C)cc1)Cc1cccc2ccccc12 | < 5.30 |
| CC1=C(/C=C/C(C)=C/C=C/C(C)=C/C(=O)Nc2ccc(O)cc2)C(C)(C)CCC1 | < 5.30 |
| CCCCCCCCCN1C[C@@H](O)[C@H](O)[C@@H](O)[C@@H]1CO | < 5.30 |
| CO[C@@]1(NC(=O)Cc2cccs2)C(=O)N2C(C(=O)O)=C(COC(N)=O)CS[C@@H]21 | < 5.30 |
| O=C(CCCC(F)(F)F)N1CCC(c2nc(-c3nccs3)no2)CC1 | < 5.30 |
| O=S(=O)(Nc1cccc2cccnc12)c1ccccc1 | < 5.30 |
| Clc1cccc(-c2nnc(-c3ccccc3)o2)c1 | < 5.30 |
| Nc1nnnn1CCOc1c2[nH]c3ccc(Cl)cc3c2cc2c1[nH]c1ccc(Cl)cc12 | < 5.30 |
| CCCCSc1nc(N)c2[nH]c(=O)c(=O)n(Cc3ccccc3)c2n1 | < 5.30 |
| Cc1c[nH]c(=O)nc1NCc1ccccc1 | < 5.30 |
| C[N+]1(C)CCCC(OC(=O)C(O)(c2ccccc2)c2ccccc2)C1 (stereo unspecified) | < 5.30 |
| Cc1ccc(Oc2ccccc2-c2csc(NC3=NCCCN3)n2)c(C)c1 | < 5.30 |
| CC(=O)N[C@H](C)C(=O)N[C@H](Cc1ccccc1)C(=O)O | < 5.30 |
| C[C@@]1(O)[C@H](O)[C@@H](CO)O[C@H]1n1ccc2c(N)ncnc21 | < 5.30 |
| OB1OCc2cc(Cl)ccc21 | < 5.30 |
| CCc1c(OCC2CCC2)c2cc(F)ccc2[nH]c1=O | < 5.30 |
| Nc1cc(-c2nc3ccccc3[nH]2)n[nH]c1=O | < 5.30 |
| FC(F)(F)c1cc(C(F)(F)F)c2ccc3nc(-c4nnco4)cn3c2n1 | < 5.30 |
| O=C(CSc1nnc(Br)n1-c1ccc(C2CC2)c2ccccc12)Nc1ccc(C(=O)O)cc1Cl | < 5.30 |
| Cc1nc(-c2ccc(C3N(C)c4ccc(F)cc4C(=O)N3c3ccccc3)s2)cs1 (stereo unspecified) | < 5.30 |
| NC(=O)c1c(N)sc2c1CCCCC2 | < 5.30 |
| CC#C[C@]1(O)CC[C@H]2[C@@H]3CCC4=CC(=O)CCC4=C3[C@@H](c3ccc(N(C)C)cc3)C[C@@]21C | < 5.30 |

| SMILES | pIC50 |
| --- | --- |
| O=C(O)c1ccc(-c2ccc(O[C@H]3O[C@H](CO)[C@@H](O)[C@H](O)[C@@H]3O)cc2)cc1 | < 5.30 |
| CC(N)C12CC3CC(CC(C3)C1)C2 (stereo unspecified) | < 5.30 |
| O=S(=O)(Nc1ccc(O)cc1)c1cccc2cccnc12 | < 5.30 |
| CC[C@@]1(O)C(=O)OCc2c1cc1n(c2=O)Cc2cc3c(CN(C)C)c(O)ccc3nc2-1 | 5.39 |
| NC(=O)c1nccn([C@@H]2O[C@H](CO)[C@@H](O)[C@H]2O)c1=O | < 5.30 |
| O=C(c1nc2c(C(F)(F)F)cc(C3CC3)cn2c1Cl)N1CCN([C@H]2CC[C@H](O)CC2)C(=O)C1 | < 5.30 |
| CCCCOC(=O)Nc1cc2nc(C3CCCCC3)[nH]c2cc1N(CC)CC | 5.75 |
| CCC[C@H](NC(=O)[C@@H]1[C@H]2CCC[C@H]2CN1C(=O)[C@@H](NC(=O)[C@@H](NC(=O)c1cnccn1)C1CCCCC1)C(C)(C)C)C(=O)C(=O)NC1CC1 | < 5.30 |
| COc1ccc2sc3c(c2c1)NC(C)CNC3=O (stereo unspecified) | < 5.30 |
| O=C(c1ccc(F)cc1)N1CCN2C(=O)c3ccccc3C12c1ccccc1 (stereo unspecified) | < 5.30 |
| OC[C@@H]1CC[C@H](n2cnc3c(O)ncnc32)O1 | < 5.30 |
| Cc1nc(N(C)C(=O)Cc2ccc(-c3ccccn3)cc2)sc1S(N)(=O)=O | < 5.30 |
| O=C(Nc1ccccc1)N(Cc1cc(Br)ccc1O)c1ccc(F)cc1 | < 5.30 |
| COc1ccc(SCC(=O)N2c3ccccc3Sc3ccccc32)cc1 | < 5.30 |
| OB1OCc2c1ccc(Cl)c2F | < 5.30 |
| O=[N+]([O-])c1cn(Cc2nc(O)nc(O)c2Br)cn1 | < 5.30 |
| O=C(O)c1cc(-c2ccc(Br)cc2)nc2ccc(Cl)cc12 | < 5.30 |
| CCC(CC)[C@H](NC(C)=O)[C@@H]1[C@H](O)[C@@H](C(=O)O)C[C@H]1NC(=N)N | < 5.30 |
| O=C(Nc1[nH]c(=O)ncc1F)c1ccccc1 | < 5.30 |
| Cc1cc(CCCOc2c(C)cc(-c3noc(C(F)(F)F)n3)cc2C)on1 | < 5.30 |
| Fc1ccc2c(/C=C/c3nnn[nH]3)c[nH]c2c1 | < 5.30 |
| CC(Oc1ccc(Cl)cc1Cl)C(=O)NCc1ccc2c(c1)OCO2 (stereo unspecified) | < 5.30 |
| O=C(/C=C\n1cnc(-c2cc(C(F)(F)F)cc(C(F)(F)F)c2)n1)NNc1ccccn1 | < 5.30 |
| CC(=O)Nc1cc(NS(=O)(=O)c2ccc(Cl)cc2)cc2c(Cl)n[nH]c12 | < 5.30 |
| Cc1nc2ccc(Cl)cc2c(-c2ccccc2)c1CC(=O)O | < 5.30 |

| SMILES | pIC50 |
| --- | --- |
| CCCCCCC1c2ccc(O)cc2Oc2cc(O)ccc21 | < 5.30 |
| COc1ccc(C)cc1NC(=O)c1ccc(S(=O)(=O)N2CCCCC2)cc1 | < 5.30 |
| CC(C)Oc1cccc(NC(=O)c2ccccc2C(F)(F)F)c1 | < 5.30 |
| Nc1nc(=O)c(Br)c(-c2cccc(Cl)c2)[nH]1 | < 5.30 |
| CO/N=C(\C(=O)N[C@@H]1C(=O)N2C(C(=O)OCOC(=O)C(C)(C)C)=C(/C=C\c3scnc3C)CS[C@H]12)c1csc(N)n1 | < 5.30 |
| CC(C)(C)OC(=O)NCc1ccc(C(=O)N[C@H]2CCOC2=O)cc1 | < 5.30 |
| Nc1nc(O)ncc1F | < 5.30 |
| O=C(NCc1cccc2ccccc12)c1cccs1 | < 5.30 |
| O=C(O)C[C@H]1CC[C@H](c2ccc(-c3ccc(Nc4ccc(C(F)(F)F)nc4)cn3)cc2)CC1 | < 5.30 |
| Nc1cccc(-c2nc(N)nc(NC3Cc4ccccc4C3)n2)c1 | < 5.30 |
| NC(=O)c1cnc2ccc(S(=O)(=O)c3ccccc3)cc2c1Nc1ccc(O)cc1 | < 5.30 |
| CCCCc1ccc(-c2nc(C)c(C(=O)OC)s2)cc1 | < 5.30 |
| COc1ccc2c(c1OC)C(=O)OC2C1c2c(cc3c(c2OC)OCO3)CCN1C (stereo unspecified) | < 5.30 |
| O=C(CCc1ccc2c(c1)OCO2)NCc1ccc(-c2ccccc2F)cc1 | < 5.30 |
| O=S(=O)(NCB(O)O)c1cc2c(Cl)ccc(Cl)c2s1 | < 5.30 |
| O=C(NO)C1(CS(=O)(=O)c2ccc(Oc3ccc(Cl)cc3)cc2)CCOCC1 | < 5.30 |
| Cc1c(CN(C)C(=O)/C=C/c2cnc3c(c2)C(C)(C)C(=O)N3)oc2ccccc12 | < 5.30 |
| NC(=O)c1[nH]c2ccc(S(N)(=O)=O)cc2c1-c1ccccc1 | < 5.30 |
| CCCCc1ccc(-c2cc(C(=O)O)cc(-c3ccc(Cl)cc3)n2)cc1 | < 5.30 |
| NCCCc1ccccc1C(=O)Nc1ncc([N+](=O)O)s1 | < 5.30 |
| COc1cc(Cc2cnc(N)nc2N)c2c(c1OC)OC(C1CC1)C=C2 (stereo unspecified) | < 5.30 |
| O=C(NCc1ccccc1Cl)c1cnc2ccccc2n1 | < 5.30 |
| CCCCN1C[C@H](O)[C@@H](O)[C@H](O)[C@H]1CO | < 5.30 |

Second part, the molecule after the results:

| pIC50 | SMILES |
| --- | --- |
| < 5.30 | NC(=O)c1cnccn1 |
| < 5.30 | CCn1cc(C(=O)O)c(=O)c2cc(F)c(N3CCNC(C)C3)c(F)c21 (stereo unspecified) |
| < 5.30 | Cn1c2ccccc2c(=O)c2c(O)cccc21 |
| < 5.30 | CC(=N)N1CC[C@H](SC2=C(C(=O)O)N3C(=O)[C@@H]([C@@H](C)O)[C@H]3C2)C1 |
| < 5.30 | O=c1cc(Nc2ccc3ccccc3c2)[nH]c(=O)[nH]1 |
| < 5.30 | CC(C)(C)c1cc(CCC(=O)N2CCC2)cc(C(C)(C)C)c1O |
| < 5.30 | COc1ccc(NC(=O)c2cc3ccccn3n2)cc1 |
| < 5.30 | N#CCN1C(=O)COc2cc(F)c(N3C(=O)c4ccccc4C3=O)cc21 |
| < 5.30 | COc1cc(C2C3=C(CC(C)(C)CC3=O)Nc3ccccc3N2C(C)=O)ccc1OCc1ccccc1 (stereo unspecified) |
| < 5.30 | Nc1nc(-c2ccccc2)nc2c1ncn2[C@@H]1O[C@H](COS(=O)(=O)NC(=O)c2ccccc2O)[C@@H](O)[C@H]1O |
| < 5.30 | CC[C@@H]1C(=O)OC[C@@H]1Cc1cncn1C |
| < 5.30 | C[C@H](NC(CC(=O)c1ccccc1C(F)(F)F)C(=O)O)c1ccccc1 (stereo partly specified) |
| < 5.30 | NC(=O)c1ccc(I)c([N+](=O)[O-])c1 |
| < 5.30 | Nc1nc(NC2Cc3ccc(F)cc3C2)nc(N2CCCCC2)n1 (stereo unspecified) |
| < 5.30 | CN(C/C=C/C#CC(C)(C)C)Cc1cccc2ccccc12 |
| < 5.30 | O=c1[nH]c(=O)n(Cc2cccc(Oc3ccccc3)c2)cc1Nc1ccccc1 |
| < 5.30 | O=C(Cc1ccccc1F)Nc1nc2ccccc2[nH]1 |

| pIC50 | SMILES |
| --- | --- |
| < 5.30 | C[C@@H](NC(=O)c1ccccc1-c1ccccc1)B(O)O |
| < 5.30 | COC(=O)Nc1nc2c(C)cccc2[nH]1 |
| < 5.30 | CC(C)N(c1cc(-c2ccccc2)sc1C(=O)O)C(=O)[C@H]1CC[C@H](C)CC1 |
| < 5.30 | O=C1NC(=S)N/C1=C\c1cc(Br)cc(Br)c1O |
| 5.62 | Clc1cc2nc(C3CCNCC3)n(Cc3ccc(CNCCc4cnc[nH]4)cc3)c2cc1Cl |
| < 5.30 | CC(C)(C)NC(=O)N[C@H](C(=O)N1C[C@H]2[C@@H]([C@H]1C(=O)NC(CC1CCC1)C(=O)C(N)=O)C2(C)C)C(C)(C)C (stereo partly specified) |
| < 5.30 | CC1(C)CC(NC(=O)C(=O)Nc2ccc(Cl)cc2)CC(C)(C)N1 |
| < 5.30 | C[C@H](NC(=O)C(=O)Nc1ccccc1C(C)(C)C)C(=O)N[C@@H](CC(=O)O)C(=O)COc1c(F)c(F)cc(F)c1F |
| < 5.30 | Fc1ccc(-n2cc(Cn3c(-c4cccc(F)c4)nc4ccccc43)nn2)cc1 |
| < 5.30 | CS(=O)(=O)c1ccc(Oc2ccc(Cl)cc2)cc1 |
| < 5.30 | CCOC(=O)N[C@@H]1CC[C@@H]2[C@@H](C1)C[C@H]1C(=O)O[C@H](C)[C@H]1[C@H]2/C=C/c1ccc(-c2cccc(F)c2)cn1 |
| < 5.30 | O=C1NC(=O)C(Br)=C1Br |
| < 5.30 | COc1ccc(C(C)(C)C)cc1NC(=O)C(=O)c1ccc(OCCN2CCOCC2)c2ccccc12 |
| < 5.30 | COc1cc(Cc2cc(N)nc(N)n2)cc(OC)c1OC |
| < 5.30 | COc1cc2c(O)c3c(c(-c4ccc5c(c4)OCO5)c2cc1OC)C(=O)OC3 |
| < 5.30 | C[C@H]1COc2c(N3CCN(C)CC3)c(F)cc3c(=O)c(C(=O)O)cn1c23 |
